ChEMBL document CHEMBL1134252, “Reaction of Lys-Tyr-Lys triad mimics with benzylpenicillin: insight into the role of Tyr150 in class C beta-lactamase” (Bioorg Med Chem Lett, 2001)

How the values were obtained:
[1] = Time taken by compound for 10% decrease in benzyl-penicillin concentration; format: ADME
[2] = pKa1 value determined; format: physicochemical; settings: read-out: pKa1
[3] = pKa2 value determined; format: physicochemical; settings: read-out: pKa2

SMILES | Time [1] | pKa [2] | pKa [3]
COc1c(CN)cc(C)cc1CN | 44.9 h | 8.5 | 10.2
Cc1ccc(O)c(CN)c1 | 8.25 h | 8.7 | –
Cc1cc([C@@H](N)CO)c(O)c([C@@H](N)CO)c1 | 3.6 h | 6.3 | 9

Second part, the compound after the results:

Time [1] | pKa [2] | pKa [3] | SMILES
2.45 h | 6.4 | 9.7 | Cc1cc(CNCCO)c(O)c(CNCCO)c1
1.38 h | 7 | 9.7 | Cc1cc(CN)c(O)c(CN)c1
